In one test the test system is type 17 collagen gene. The test is described as follows: Gene expression test: mRNA level of type 17 collagen gene in epidermal cells (RT-PCR, corrected with GAPDH). As to conditions: NHEK cells; for Assessment (promoting action on type 17 collagen gene expression) / Gene expression increase rate (type 17 collagen gene): 1 mM final concentration, 72 hours; for Gene expression increase rate (type 17 collagen gene): control = 100. The format is cell-based, human. The arrangement: key to Assessment (promoting action on type 17 collagen gene expression): samples with “++” were determined to have a significance in the promoting action on expression of the gene; In samples with “+”, the gene expression increase rate (%) exceeded 100; Samples with “−” were determined to have no significance in the promoting action on expression of the gene. As for the experimental part: (§1) First, normal human epidermal keratinocytes NHEK (NB) (manufactured by KURABO INDUSTRIES LTD.) were obtained as epidermal cells. The cells were seeded in a necessary number of commercially available dishes of ϕ60 mm at 1.25×10^4 cells per dish (5 mL of a cell dispersion liquid having a concentration of 0.25×10^4 cells/mL), and cultured in a serum-free medium (trade name: “HuMedia KG-2”, manufactured by KURABO INDUSTRIES LTD.) for 2 days. Then, the cells were confirmed to be subconfluent in the dishes, and the medium in the dishes was then replaced by a basal medium (trade name: “HuMedia KB-2”, manufactured by KURABO INDUSTRIES LTD.). In this way, epidermal cells for evaluating the mRNA level of the type 17 collagen gene and the mRNA level of the glutathione synthetase gene were prepared.
(§2) To the basal medium in the dishes, the peptide or the collagen peptide mixture was added to the concentrations shown in Tables 1 to 4, and the cells were cultured at 37° C. in an atmosphere at a carbon dioxide concentration of 5 vol % for 72 hours to prepare samples to be subjected to a gene expression test. In addition, a control sample obtained by adding only ion-exchanged water to the basal medium in the dish (hereinafter, also referred to as “Blank”) was prepared. This control sample was also cultured at 37° C. in an atmosphere at a carbon dioxide concentration of 5 vol % for 72 hours.
Next, by using a RNA extraction kit (trade name: “TRIzol (registered trademark) Reagent, manufactured by Life Technologies Japan Ltd.) in accordance with the protocol accompanying the kit, total RNA was extracted from the epidermal cells in the dish to obtain an extract containing total RNA for each sample. Subsequently, by using a cDNA preparation kit (trade name (product number): “High Capacity RNA-to-cDNA Kit (4387406)”, manufactured by Life Technologies Japan Ltd.) in accordance with the protocol accompanying the kit, reverse transcription was performed on RNA in the extract to obtain cDNA from the RNA in the extract. Further, real-time (RT)-PCR was performed on the cDNA by a DNA amplifying apparatus (trade name: “Step One Plus (TM) Real-Time PCR System”, manufactured by Applied Biosystems Inc.).
In the RT-PCR, the mRNA levels of type 17 collagen (manufactured by Life Technologies Japan Ltd., primer: Hs009900361_ml) as a target gene and glutathione synthetase (GSS, manufactured by Life Technologies Japan Ltd., primer: Hs01547656_ml) were measured. As an internal standard (correction gene), GAPDH was selected. For calculation of the mRNA level, a calibrated curve method was used. As the primer and the probe for the RT-PCR, those accompanying a reagent kit (trade name: “TaqMan (registered trademark) Gene Expression Assays, manufactured by Applied Biosystems Inc.) were used.
First, in the samples and the control sample, the mRNA levels (gene expression levels) of the two target genes (type 17 collagen and glutathione synthetase) were each calculated. Next, the mRNA levels of the two target genes were corrected with the mRNA level of GAPDH as a correction gene to obtain correction values in the samples and the control sample. Specifically, values obtained by dividing the mRNA levels of the two target genes by the mRNA level of GAPDH (relative values) were each determined.
Then, the ratio of the correction value obtained in each sample to the correction value in the control sample, which was defined as 100, was determined (gene expression increase rate (%)).
Further, the gene expression increase rate (%) was subjected to statistical processing to evaluate significance of the promoting action on gene expression of the type 17 collagen gene and the glutathione synthetase gene in each sample. […]

The test system of test [1] is glutathione synthetase gene. Put plainly: Gene expression test: mRNA level of glutathione synthetase gene in epidermal cells (RT-PCR, corrected with GAPDH). The format is cell-based, human. The following applies: NHEK cells, 1 mM final concentration, 72 hours; for Gene expression increase rate (glutathione synthetase gene): control = 100. As for the experimental part:
as §1, §2
Next, by using a RNA extraction kit (trade name: “TRIzol (registered trademark) Reagent, manufactured by Life Technologies Japan Ltd.) in accordance with the protocol accompanying the kit, total RNA was extracted from the epidermal cells in the dish to obtain an extract containing total RNA for each sample. Subsequently, by using a cDNA preparation kit (trade name (product number): “High Capacity RNA-to-cDNA Kit (4387406)”, manufactured by Life Technologies Japan Ltd.) in accordance with the protocol accompanying the kit, reverse transcription was performed on RNA in the extract to obtain cDNA from the RNA in the extract. […]
In the RT-PCR, the mRNA levels of type 17 collagen (manufactured by Life Technologies Japan Ltd., primer: Hs009900361_ml) as a target gene and glutathione synthetase (GSS, manufactured by Life Technologies Japan Ltd., primer: Hs01547656_ml) were measured. […]
First, in the samples and the control sample, the mRNA levels (gene expression levels) of the two target genes (type 17 collagen and glutathione synthetase) were each calculated. […] Specifically, values obtained by dividing the mRNA levels of the two target genes by the mRNA level of GAPDH (relative values) were each determined.
Then, the ratio of the correction value obtained in each sample to the correction value in the control sample, which was defined as 100, was determined (gene expression increase rate (%)). […]

Where no end group is shown, it is not given here. [ ]: non-standard residue; d: D form. Hyp = O=C(O)[C@@H]1C[C@@H](O)CN1

For Gly-Pro [GP], in the test with type 17 collagen gene, the “Assessment (promoting action on type 17 collagen gene expression)” value was “++” and the “Gene expression increase rate (type 17 collagen gene)” value is given as 201 ± 8.42%. In test [1], the “Assessment (promoting action on glutathione synthetase gene expression)” value is given as “+ (In samples with “+”, the gene expression increase rate (%) exceeded 100)” and the “Gene expression increase rate (glutathione synthetase gene)” value stood at 106 ± 2%.
Regarding Glu-[Hyp]-Gly [EOG], in the test on type 17 collagen gene, the “Assessment (promoting action on type 17 collagen gene expression)” value is recorded as “+ (In samples with “+”, the gene expression increase rate (%) exceeded 100)” and the “Gene expression increase rate (type 17 collagen gene)” value came to 144 ± 17.01%. Moreover, in test [1], the “Assessment (promoting action on glutathione synthetase gene expression)” value is “+ (In samples with “+”, the gene expression increase rate (%) exceeded 100)” and the “Gene expression increase rate (glutathione synthetase gene)” value is 131 ± 10%.
For Glu-Hyp [EO, reference compound], in the test on type 17 collagen gene, the “Assessment (promoting action on type 17 collagen gene expression)” value is reported as “−” and the “Gene expression increase rate (type 17 collagen gene)” value was 100 ± 6.46%. Moreover, in the test on type 17 collagen gene (discussion of Table 1), the “promoting action on type 17 collagen gene expression (in words)” value is “did not exhibit an evident promoting action”.

The record behind these values is US20220193180A1, “AGING PROGRESSION SUPPRESSING AGENT, AND FOOD OR BEVERAGE PRODUCT COMPRISING SAME” (NITTA GELATIN INC., priority 2019, published 2022).
